Where a SMILES comes first, the peptide text is derived from it. Bridges are numbered along the chain shown (N, C = ends). [ ]: non-standard residue; d: D form. The star is where a group is joined. hPhe(3-Cl-4-CF3) = N[C@@H](CCc1ccc(C(F)(F)F)c(Cl)c1)C(=O)O; NPrPhe(4-CF3) = CCCN[C@@H](Cc1ccc(C(F)(F)F)cc1)C(=O)O; NEtPhe(4-Me) = CCN[C@@H](Cc1ccc(C)cc1)C(=O)O; NMeGly(cPent) = CN[C@H](C(=O)O)C1CCCC1; Pro(4,4-F2) = O=C(O)[C@@H]1CC(F)(F)CN1; NMeD = CN[C@@H](CC(=O)O)C(=O)O; NMeL = CN[C@@H](CC(C)C)C(=O)O; NMeV = CN[C@H](C(=O)O)C(C)C; Morpholide = C1CN(*)CCO1; Ac5c = NC1(C(=O)O)CCCC1; Aze = O=C(O)[C@@H]1CCN1; Ac4c = NC1(C(=O)O)CCC1; Sar = CNCC(=O)O
Assays:
[1] = target: GDP-bound KRAS wild-type protein (Homo sapiens, UniProt P01116); assay: Binding to KRAS by surface plasmon resonance (SPR), dissociation constant KD; conditions: 1:1 binding model
GDP-bound KRAS wild-type protein, sequence (P01116 1-188 isoform P01116-2): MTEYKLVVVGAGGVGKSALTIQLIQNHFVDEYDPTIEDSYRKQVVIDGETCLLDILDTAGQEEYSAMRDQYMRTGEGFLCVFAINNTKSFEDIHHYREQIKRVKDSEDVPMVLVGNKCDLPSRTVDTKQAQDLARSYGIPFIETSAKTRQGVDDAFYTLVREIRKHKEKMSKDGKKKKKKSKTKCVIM
How it was run: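 Compound binding is evaluated by SPR single-cycle kinetics, with concentrations added intermittently from low to high for 75 s each. Target surfaces carry GDP-loaded biotinylated Avi-RAS at about 100–300 RU, regenerated after each cycle; temperature 30°C. A 1:1 binding model gives KD.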

[2] = target: GDP-bound NRAS wild-type protein (Homo sapiens, UniProt P01111); assay: Binding to NRAS by surface plasmon resonance (SPR), KD and KD ratio to KRAS
GDP-bound NRAS wild-type protein, sequence (P01111 whole entry): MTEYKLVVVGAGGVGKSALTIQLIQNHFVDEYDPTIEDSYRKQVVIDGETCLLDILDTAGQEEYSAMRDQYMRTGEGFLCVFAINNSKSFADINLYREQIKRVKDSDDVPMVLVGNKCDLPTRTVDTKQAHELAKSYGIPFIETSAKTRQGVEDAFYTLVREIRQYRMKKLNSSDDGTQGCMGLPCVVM
How it was run: (§1)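 Captured GDP-RAS (~100–300 RU) was exposed to increasing compound concentrations, 75 s per step, in running buffer with 10 µM GDP, 10 mM MgCl2 and 4% DMSO at pH 7.4.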

HRAS wild-type protein = HRAS wild-type protein (Homo sapiens, UniProt P01112); assay: Binding to HRAS by surface plasmon resonance (SPR), KD and KD ratio to KRAS
HRAS wild-type protein, sequence (P01112 whole entry): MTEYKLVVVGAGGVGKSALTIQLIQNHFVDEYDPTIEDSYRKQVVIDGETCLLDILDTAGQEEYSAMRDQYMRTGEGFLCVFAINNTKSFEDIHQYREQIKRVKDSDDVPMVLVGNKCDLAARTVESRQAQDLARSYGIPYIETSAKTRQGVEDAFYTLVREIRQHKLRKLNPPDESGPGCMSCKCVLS
How it was run: as §1

[3] = system: human lung cancer strain NCI-H441; assay type: cell-based
How it was run: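 Step one: dispense the test compound in serial DMSO dilutions. Step three: add the reagent and measure […].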

[4] = ratio of KD for GDP-bound NRAS wild-type protein to KD for KRAS
[5] = ratio of KD for HRAS wild-type protein to KD for KRAS
[6] = ratio of the KD value with respect to GDP-bound NRAS wild-type protein to the KD value with respect to KRAS
[7] = ratio of the KD value with respect to HRAS wild-type protein to the KD value with respect to KRAS
[8] = ratio of KD value for GDP-bound NRAS wild-type protein to KD value for KRAS (SPR)
[9] = ratio of KD value for HRAS wild-type protein to KD value for KRAS (SPR)

Structure (SMILES)	Kd [1] [nM]	IC50 [3] [nM]	Kd ([1]; Single Cycle Kinetics) [nM]	NRAS /KRAS [2, 4]	HRAS /KRAS (HRAS wild-type protein; [5])	NRAS /KRAS [2, 6]	HRAS /KRAS (HRAS wild-type protein; [7])	NRAS /KRAS [2, 8]	HRAS /KRAS (HRAS wild-type protein; [9])
CCCN1C(=O)CN(C)C(=O)[C@@H]2CCN2C(=O)[C@H]([C@@H](C)CC)NC(=O)[C@H](CC(C)C)N(C)C(=O)C[C@@H](C(=O)N2CCOCC2)NC(=O)[C@H](C2CCCC2)N(C)C(=O)C2(CCC2)NC(=O)[C@@H]2CC(F)(F)CN2C(=O)[C@H](CCc2ccc(C(F)(F)F)c(Cl)c2)NC(=O)CN(C)C(=O)[C@@H]1Cc1ccc(C(F)(F)F)cc1 [PP0340] ([NMeL]I[Aze][Sar][NPrPhe(4-CF3)][Sar][hPhe(3-Cl-4-CF3)][Pro(4,4-F2)][Ac4c][NMeGly(cPent)]D-Morpholide; lactam N-11)	3.7	177	–	B (a compound having 3 or more and less than 10 is denoted as B)	B (a compound having 3 or more and less than 10 is denoted as B)	–	–	–	–
CCO[C@@H]1C[C@H]2C(=O)NC3(CCC3)C(=O)N(C)[C@@H](C3CCCC3)C(=O)N(C)[C@H](C(=O)N(CC)CC)CC(=O)N(C)[C@@H](CC(C)C)C(=O)N[C@@H]([C@@H](C)CC)C(=O)N(C)CC(=O)N(C)[C@H]3C/C=C\CCN(C3=O)[C@@H](Cc3ccc(C)cc3)C(=O)N(C)CC(=O)N[C@@H](CCc3ccc(C(F)(F)F)c(OC)c3)C(=O)N2C1 [PP1851]	–	165	1.8	–	–	–	–	A (a compound having 10 or more and less than 20 is denoted as A)	A (a compound having 10 or more and less than 20 is denoted as A)
C=CCCCCN(C)C(=O)[C@@H]1CC(=O)N(C)[C@@H](CC2CC2)C(=O)N[C@@H](CC=C)C(=O)N(C)CC(=O)N(C)[C@H]2C/C=C\CCN(C2=O)[C@@H](Cc2ccc(C(F)(F)F)cc2)C(=O)N(C)CC(=O)N[C@@H](CCc2cc(F)c(C(F)(F)F)c(F)c2)C(=O)N2C[C@H](OCC)C[C@H]2C(=O)NC2(CCC2)C(=O)N(C)[C@@H](C2CCCC2)C(=O)N1C [PP1554]	–	121	2.7	–	–	–	–	A (a compound having 10 or more and less than 20 is denoted as A)	A (a compound having 10 or more and less than 20 is denoted as A)
CC[C@H](C)[C@@H]1NC(=O)[C@H](CC(C)C)N(C)C(=O)C[C@@H](C(=O)N2CCOCC2)N(C)C(=O)[C@H](C(C)C)N(C)C(=O)C2(CCCC2)NC(=O)[C@@H]2CCCN2C(=O)[C@H](CCc2ccc(C(F)(F)F)c(Cl)c2)NC(=O)CN(C)C(=O)[C@H](Cc2ccc(C)cc2)N(CC)C(=O)CN(C)C(=O)CN(C)C1=O [PP0044] ([NMeL]I[Sar][Sar][NEtPhe(4-Me)][Sar][hPhe(3-Cl-4-CF3)]P[Ac5c][NMeV][NMeD]-Morpholide; lactam N-11)	3.6	142	–	C (A compound having a KD ratio of 0.1 or more and less than 3 is denoted as C)	C (A compound having a KD ratio of 0.1 or more and less than 3 is denoted as C)	–	–	–	–

Molecules with a lower IC50 [3], results first:

Kd [1] [nM]	IC50 [3] [nM]	Kd ([1]; Single Cycle Kinetics) [nM]	Structure (SMILES)	NRAS /KRAS [2, 4]	HRAS /KRAS (HRAS wild-type protein; [5])	NRAS /KRAS [2, 6]	HRAS /KRAS (HRAS wild-type protein; [7])	NRAS /KRAS [2, 8]	HRAS /KRAS (HRAS wild-type protein; [9])
1.1	39	–	CCCC[C@H]1C(=O)N[C@@H]([C@@H](C)CC)C(=O)N(C)CC(=O)N(C)[C@H]2C/C=C\CCN(C2=O)[C@@H](Cc2ccc(C(F)(F)F)cc2)C(=O)N(C)CC(=O)N[C@@H](CCc2ccc(C(F)(F)F)cc2Cl)C(=O)N2C[C@H](F)C[C@H]2C(=O)NC2(CC(C)(C)C2)C(=O)N(C)[C@@H](C2CCC2)C(=O)N(C)[C@H](C(=O)N(C)C)CC(=O)N1C [PP3124]	A (a compound having 10 or more and less than 20 is denoted as A)	A (a compound having 10 or more and less than 20 is denoted as A)	–	–	–	–
4.3	72.7	–	CCO[C@@H]1C[C@H]2C(=O)NC3(CC(C)(C)C3)C(=O)N(C)[C@@H](C3CCCC3)C(=O)N(C)[C@H](C(=O)N(C)CC)CC(=O)N(C)[C@@H](CC(C)C)C(=O)N[C@@H]([C@@H](C)CC)C(=O)N(C)CC(=O)N(C)[C@H]3C/C=C\CCN(C3=O)[C@@H](Cc3ccc(C(F)F)cc3)C(=O)N(C)CC(=O)N[C@@H](CCc3cc(C)c(C(F)F)c(C)c3)C(=O)N2C1 [PP3144]	A (a compound having 10 or more and less than 20 is denoted as A)	A (a compound having 10 or more and less than 20 is denoted as A)	–	–	–	–
–	14	0.11	CCCOC[C@H]1C(=O)N[C@@H]([C@@H](C)CC)C(=O)N(C)CC(=O)N(C)[C@H]2C/C=C\CCN(C2=O)[C@@H](Cc2ccc(C(F)(F)F)cc2)C(=O)N(C)CC(=O)N[C@@H](CCc2ccc(C(F)(F)F)c(OC)c2)C(=O)N2C[C@@H](C)C[C@H]2C(=O)NC2(CCC2)C(=O)N(C)[C@@H](C2CCCC2)C(=O)N(C)[C@H](C(=O)N(C)CC)CC(=O)N1C [PP2027]	–	–	A (a compound having 10 or more and less than 20 is denoted as A)	B (a compound having 3 or more and less than 10 is denoted as B)	–	–
–	3.7	0.14	CCCOC[C@H]1C(=O)N[C@@H]([C@@H](C)CC)C(=O)N(C)CC(=O)N(C)[C@H]2C/C=C\CCN(C2=O)[C@@H](Cc2ccc(C)cc2)C(=O)N(C)CC(=O)N[C@@H](CCc2ccc(C(F)(F)F)c(OC)c2)C(=O)N2C[C@H](OCC)C[C@H]2C(=O)N(C)C2(CCC2)C(=O)N(C)[C@@H](C(CC)CC)C(=O)N(C)[C@H](C(=O)N(C)C)CC(=O)N1C [PP2323]	–	–	A (a compound having 10 or more and less than 20 is denoted as A)	A (a compound having 10 or more and less than 20 is denoted as A)	–	–
